Here are results for 37 compounds from patent US7928140B2, “Benzothiazole PI3 kinase modulators for cancer treatment” (Amgen Inc., priority 2007, dated 2011).

Molecules are shown by their SMILES. pIC50: −log10 of the molar value.

One assay addresses T1, PI3K α (Homo sapiens, UniProt P42336).
T1 construct: Full length p110 subunits of PI3K α, β and δ, N-terminally labeled with polyHis tag; polyHis (N); made in house; host or cells: Sf9 insect cells (baculovirus)
The assay can be described thus: In vitro PI3 kinase enzyme assay (alpha), ATP loss, bioluminescence.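 Note: purified p110α/p85 heterodimer acting on PtdIns(4,5)P2 at room temperature, remaining ATP read by luminescence, inhibition scaled between compound-free wells with and without enzyme.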 The conditions noted are these: read-out: PI3Kα ATP loss IC50. The class given is biochemical.

In another assay the target is T2, PI3K β (Homo sapiens, UniProt P42338).
T2 construct: Full length p110 subunits of PI3K α, β and δ, N-terminally labeled with polyHis tag; polyHis (N); made in house; host or cells: Sf9 insect cells (baculovirus)
The assay can be described thus: In vitro PI3 kinase enzyme assay (beta), ATP loss, bioluminescence.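 Note: purified p110β/p85 heterodimer with PtdIns(4,5)P2 as acceptor, incubated at room temperature, leftover ATP read by luminescence, inhibition scaled to compound-free wells with and without enzyme.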 The class given is biochemical. The conditions noted are these: read-out: PI3Kβ ATP loss IC50.

T1 sequence (P42336 whole entry, species assumed): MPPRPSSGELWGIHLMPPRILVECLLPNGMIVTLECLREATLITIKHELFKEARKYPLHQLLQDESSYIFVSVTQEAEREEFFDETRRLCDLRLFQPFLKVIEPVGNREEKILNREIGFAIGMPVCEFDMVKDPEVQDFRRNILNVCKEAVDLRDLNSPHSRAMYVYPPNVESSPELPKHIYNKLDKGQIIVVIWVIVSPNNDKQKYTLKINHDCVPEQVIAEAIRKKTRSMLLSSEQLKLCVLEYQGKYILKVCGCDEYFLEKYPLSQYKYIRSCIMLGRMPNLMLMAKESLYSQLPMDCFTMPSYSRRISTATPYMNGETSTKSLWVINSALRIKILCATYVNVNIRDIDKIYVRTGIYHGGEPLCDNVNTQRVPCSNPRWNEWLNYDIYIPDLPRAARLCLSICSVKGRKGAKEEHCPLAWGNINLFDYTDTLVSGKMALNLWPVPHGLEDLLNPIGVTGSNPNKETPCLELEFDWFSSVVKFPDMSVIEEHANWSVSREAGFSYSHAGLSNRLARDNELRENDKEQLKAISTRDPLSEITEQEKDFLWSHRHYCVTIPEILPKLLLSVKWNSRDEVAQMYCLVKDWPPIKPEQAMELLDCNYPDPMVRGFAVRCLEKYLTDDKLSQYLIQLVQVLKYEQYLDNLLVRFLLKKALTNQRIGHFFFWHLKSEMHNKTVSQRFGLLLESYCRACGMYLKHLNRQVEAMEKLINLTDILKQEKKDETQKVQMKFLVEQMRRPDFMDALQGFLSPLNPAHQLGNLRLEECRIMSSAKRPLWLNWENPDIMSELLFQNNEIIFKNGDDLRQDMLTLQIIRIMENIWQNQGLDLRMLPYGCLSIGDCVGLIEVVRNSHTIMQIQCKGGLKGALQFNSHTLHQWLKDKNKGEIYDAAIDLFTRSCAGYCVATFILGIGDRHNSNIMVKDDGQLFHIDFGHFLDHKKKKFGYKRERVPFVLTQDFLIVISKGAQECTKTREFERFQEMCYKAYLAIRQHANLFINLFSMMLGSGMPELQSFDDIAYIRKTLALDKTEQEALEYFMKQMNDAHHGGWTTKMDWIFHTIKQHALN
T1 sequence (P27986 whole entry partner, species assumed): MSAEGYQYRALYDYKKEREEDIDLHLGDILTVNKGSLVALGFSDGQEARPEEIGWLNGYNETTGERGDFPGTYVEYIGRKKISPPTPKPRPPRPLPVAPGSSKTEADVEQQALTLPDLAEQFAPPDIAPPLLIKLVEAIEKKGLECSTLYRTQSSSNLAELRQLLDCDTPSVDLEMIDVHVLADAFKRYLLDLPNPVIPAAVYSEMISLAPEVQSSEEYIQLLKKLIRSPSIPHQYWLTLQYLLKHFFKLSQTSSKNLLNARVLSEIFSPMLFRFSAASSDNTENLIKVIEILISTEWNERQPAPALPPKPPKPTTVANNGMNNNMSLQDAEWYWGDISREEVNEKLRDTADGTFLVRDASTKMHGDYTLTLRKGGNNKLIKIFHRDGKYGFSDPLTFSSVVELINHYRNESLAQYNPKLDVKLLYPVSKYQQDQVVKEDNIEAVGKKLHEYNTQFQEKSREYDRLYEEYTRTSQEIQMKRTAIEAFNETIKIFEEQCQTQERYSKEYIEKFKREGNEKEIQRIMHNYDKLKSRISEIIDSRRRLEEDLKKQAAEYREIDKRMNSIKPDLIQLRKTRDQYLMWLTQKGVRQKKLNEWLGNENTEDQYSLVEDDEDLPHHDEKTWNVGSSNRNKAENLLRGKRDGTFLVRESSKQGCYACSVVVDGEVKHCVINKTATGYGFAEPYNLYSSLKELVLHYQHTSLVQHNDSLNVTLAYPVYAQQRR
T2 sequence (P42338 whole entry): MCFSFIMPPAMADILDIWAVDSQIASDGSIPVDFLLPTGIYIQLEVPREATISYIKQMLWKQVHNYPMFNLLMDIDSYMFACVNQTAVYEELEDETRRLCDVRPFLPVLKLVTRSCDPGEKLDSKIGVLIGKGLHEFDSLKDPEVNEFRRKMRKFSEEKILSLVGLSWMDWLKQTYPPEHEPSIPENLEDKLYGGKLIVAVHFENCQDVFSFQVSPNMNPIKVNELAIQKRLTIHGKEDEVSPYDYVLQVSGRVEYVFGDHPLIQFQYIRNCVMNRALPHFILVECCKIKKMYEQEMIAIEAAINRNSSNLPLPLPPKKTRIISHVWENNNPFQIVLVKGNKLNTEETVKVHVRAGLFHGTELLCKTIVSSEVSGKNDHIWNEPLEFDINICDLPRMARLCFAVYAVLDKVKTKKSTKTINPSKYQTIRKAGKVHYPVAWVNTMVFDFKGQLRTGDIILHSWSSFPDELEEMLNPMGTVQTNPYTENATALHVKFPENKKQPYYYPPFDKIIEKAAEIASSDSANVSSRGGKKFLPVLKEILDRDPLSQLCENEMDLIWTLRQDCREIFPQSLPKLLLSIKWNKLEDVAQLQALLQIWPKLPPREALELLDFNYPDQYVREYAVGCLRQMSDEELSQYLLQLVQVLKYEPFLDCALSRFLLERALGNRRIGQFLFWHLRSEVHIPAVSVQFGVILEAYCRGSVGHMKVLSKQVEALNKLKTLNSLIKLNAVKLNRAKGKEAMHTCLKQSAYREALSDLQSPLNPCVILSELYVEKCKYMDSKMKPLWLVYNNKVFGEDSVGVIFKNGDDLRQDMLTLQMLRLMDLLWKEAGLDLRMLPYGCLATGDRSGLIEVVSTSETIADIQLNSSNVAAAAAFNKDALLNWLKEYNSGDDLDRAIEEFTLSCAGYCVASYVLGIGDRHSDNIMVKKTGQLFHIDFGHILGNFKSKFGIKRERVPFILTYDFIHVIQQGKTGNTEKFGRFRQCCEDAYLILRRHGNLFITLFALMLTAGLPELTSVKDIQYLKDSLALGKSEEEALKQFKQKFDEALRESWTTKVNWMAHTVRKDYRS
T2 sequence (P27986 whole entry partner): as the sequence (P27986 whole entry partner, species assumed) above

For the compound `CC(=O)Nc1nc2ccc(-c3ccnc(Sc4ccccc4C(C)C)n3)cc2s1` [Example 154, N-(6-(2-((2-(1-methylethyl)phenyl)sulfanyl)-4-pyrimidinyl)-1,3-benzothiazol-2-yl)acetamide], the pIC50 (in general, −log10 of the IC50, conventionally taken in molar units) at PI3K α was 6.42; at PI3K β, 5.92.
The matching figures for `Cc1ccc(S(=O)(=O)Nc2nnc(-c3ccc4nc(N)sc4c3)o2)cc1` [Example 165, N-(5-(2-Aminobenzo[d]thiazol-6-yl)-1,3,4-oxadiazol-2-yl)-4-methylbenzenesulfonamide]: 6.71 and 6.77.
Turning to `Cc1nc2ccc(-c3cc(O)c(C(F)(F)F)nc3F)cc2s1` [Example 341, 6-fluoro-5-(2-methyl-1,3-benzothiazol-6-yl)-2-(trifluoromethyl)-3-pyridinol], the pIC50 was 4.66 on PI3K α and < 4.40 on PI3K β.
The matching figures for `COc1ccc(S(=O)(=O)Nc2cc(-c3ccc4nc(NC(=O)C5CCCCC5)sc4c3)cnc2Cl)cc1` [Example 304, N-(6-(6-chloro-5-(((4-methoxyphenyl)sulfonyl)amino)-3-pyridinyl)-1,3-benzothiazol-2-yl)cyclohexanecarboxamide]: 7.79 and 7.53.
Taken in the same sequence, the figures for `CC(=O)Nc1nc2ccc(-c3cncc(OCCN4CCCCCC4)c3)cc2s1` [Example 234, N-(6-(5-(2-(azepan-1-yl)ethoxy)pyridin-3-yl)benzo[d]thiazol-2-yl)acetamide] were 5.60 and 5.00.
For the compound `CC(=O)Nc1nc2ccc(-c3ccnc(OCCCCO)n3)cc2s1` [Example 103, N-(6-(2-(4-hydroxybutoxy)-4-pyrimidinyl)-1,3-benzothiazol-2-yl)acetamide], the negative-log IC50 (pIC50) at PI3K α is 6.14; on PI3K β it was < 4.40.
Taken in the same sequence, the figures for `COCCNc1nccc(-c2ccc3nc(N)sc3c2)n1` [Example 48, 6-(2-((2-methoxyethyl)amino)-4-pyrimidinyl)-1,3-benzothiazol-2-amine] were 4.74 and < 4.40.
The matching figures for `CC(=O)Nc1nc2ccc(-c3ccnc(N(C)C)n3)cc2s1` [Example 52, N-(6-(2-(dimethylamino)-4-pyrimidinyl)-1,3-benzothiazol-2-yl)acetamide]: 5.59 and < 4.40.
The matching figures for `CC(=O)Nc1nc2ccc(-c3ccnc(N(C)S(=O)(=O)c4ccsc4)n3)cc2s1` [Example 209, N-(6-(2-(N-methylthiophene-3-sulfonamido)pyrimidin-4-yl)benzo[d]thiazol-2-yl)acetamide]: 6.73 and 6.07.
In the case of `CC(=O)Nc1nc2ccc(-c3ccnc(Cc4ccccc4)n3)cc2s1` [Example 13, N-(6-(2-Benzylpyrimidin-4-yl)benzo[d]thiazol-2-yl)acetamide], the pIC50 on PI3K α is 5.35; on PI3K β, < 4.40.
The matching figures for `CC(=O)Nc1nc2ccc(-c3cncc(OCCN4CCCCC4)c3)cc2s1` [Example 233, N-(6-(5-(2-(piperidin-1-yl)ethoxy)pyridin-3-yl)benzo[d]thiazol-2-yl)acetamide]: 5.38 and 4.92.
As for `CC(=O)Nc1nc2ccc(-c3ccnc(Sc4cc(C)cc(C)c4)n3)cc2s1` [Example 149, N-(6-(2-((3,5-dimethylphenyl)sulfanyl)-4-pyrimidinyl)-1,3-benzothiazol-2-yl)acetamide], the pIC50 on PI3K α is 6.73; on PI3K β, 6.41.
Taken in the same sequence, the figures for `CC(=O)Nc1nc2ccc(-c3ccnc(NS(=O)(=O)c4cccnc4)n3)cc2s1` [Example 79, N-(6-(2-(pyridine-5-sulfonamido)pyrimidin-4-yl)benzo[d]thiazol-2-yl)acetamide] were 7.22 and 6.07.
Taken in the same sequence, the figures for `Nc1nc2ccc(-c3ccnc(NCCCc4ccccc4)n3)cc2s1` [Example 45, 6-(2-(3-Phenylpropylamino)pyrimidin-4-yl)benzo[d]thiazol-2-amine] were 5.71 and 6.34.
The matching figures for `CC(C)(C)OC(=O)Nc1nc2ccc(-c3nnc(NS(=O)(=O)c4ccc(F)cc4)o3)cc2s1` [Example 167, tert-Butyl 6-(5-(4-fluorophenylsulfonamido)-1,3,4-oxadiazol-2-yl)benzo[d]thiazol-2-ylcarbamate]: 6.18 and 5.24.
As to `CC(=O)Nc1nc2ccc(-c3ccnc(OCCN4CCOCC4)n3)cc2s1` [Example 11], on PI3K β, the pIC50 was < 4.40.
As to `CC(=O)Nc1nc2ccc(-c3cnccc3OC(F)F)cc2s1` [Example 248, N-(6-(4-(difluoromethoxy)pyridin-3-yl)benzo[d]thiazol-2-yl)acetamide], the results for the pIC50 on PI3K α and on PI3K β were 5.42 and 4.77, respectively.
For the compound `CC(=O)Nc1nc2ccc(-c3cccc(N)c3)nc2s1` [Example 156, N-(5-(3-aminophenyl)thiazolo[5,4-b]pyridin-2-yl)acetamide], on PI3K α, the negative logarithm of the IC50 (pIC50) is 6.19.
For `CC(=O)Nc1nc2ccc(-c3ccnc(N4CCCCC4)n3)cc2s1` [Example 263, N-(6-(2-(piperidin-1-yl)pyrimidin-4-yl)benzo[d]thiazol-2-yl)acetamide], the pIC50 is 5.71 on PI3K α and < 4.40 on PI3K β.
In the case of `CC(=O)Nc1nc2ccc(-c3cncc(OCCN4CCC(C)(C)C4=O)c3)cc2s1` [Example 252], the pIC50 on PI3K α was 5.53; on PI3K β, 4.35.
Taken in the same sequence, the figures for `CC(=O)Nc1nc2ccc(-c3cncc(N(C)S(=O)(=O)c4ccc(F)cc4)c3)cc2s1` [Example 219, N-(6-(5-(4-fluoro-N-methylphenylsulfonamido)pyridin-3-yl)benzo[d]thiazol-2-yl)acetamide] were 6.43 and 5.53.
Regarding `CC(C)(C)OC(=O)Nc1nc2ccc(-c3nnc(NCc4ccccc4)o3)cc2s1` [Example 169, tert-Butyl 6-(5-(benzylamino)-1,3,4-oxadiazol-2-yl)benzo[d]thiazol-2-ylcarbamate], the pIC50 at PI3K α was 5.37; on PI3K β, 5.57.
Taken in the same sequence, the figures for `CC(=O)Nc1nc2ccc(-c3ccnc(Nc4ccccn4)n3)cc2s1` [Example 264, N-(6-(2-(pyridin-2-ylamino)pyrimidin-4-yl)benzo[d]thiazol-2-yl)acetamide] were 5.60 and < 4.40.
Take `CCC(=O)Nc1nc2ccc(-c3ccnc(OCc4ccccc4)n3)cc2s1` [Example 57, N-(6-(2-(benzyloxy)-4-pyrimidinyl)-1,3-benzothiazol-2-yl)propanamide]: the values for the pIC50 at PI3K α and at PI3K β were 6.56 and 5.05, respectively.
Taken in the same sequence, the figures for `CC(=O)Nc1nc2ccc(-c3cnc(OC(F)F)cc3C)cc2s1` [Example 250, N-(6-(6-(difluoromethoxy)-4-methylpyridin-3-yl)benzo[d]thiazol-2-yl)acetamide] were 4.93 and 4.56.
As for `COc1ccc(S(=O)(=O)Nc2cccc(-c3ccc4nc(NC(C)=O)sc4c3)c2)cc1` [Example 260, N-(6-(3-(4-methoxyphenylsulfonamido)phenyl)benzo[d]thiazol-2-yl)acetamide], the pIC50 on PI3K β is 6.38.
Still for that read-out and setting: for `CC(=O)Nc1nc2ccc(-c3ccnc(Sc4ccccc4)n3)cc2s1` [Example 21, N-(6-(2-(phenylsulfanyl)-4-pyrimidinyl)-1,3-benzothiazol-2-yl)acetamide] the value was 6.51.
`CC(=O)Nc1nc2ccc(-c3ccnc(O)n3)cc2s1` [Example 53, N-(6-(2-hydroxy-4-pyrimidinyl)-1,3-benzothiazol-2-yl)acetamide]: the pIC50 on PI3K α was 5.10; on PI3K β, < 4.40.
As to `CC(=O)Nc1nc2ccc(-c3cnc(OCCN(C)C)c(NC(C)C)c3)cc2s1` [Example 159, N-(6-(6-(2-(dimethylamino)ethoxy)-5-(isopropylamino)pyridin-3-yl)benzo[d]thiazol-2-yl)acetamide], the negative logarithm of the IC50 (pIC50) on PI3K α is 6.04; at PI3K β it was 5.43.
As for `COc1ccc(COc2nccc(-c3ccc4nc(NC(C)=O)sc4c3)n2)cc1` [Example 38, N-(6-(2-((4-methoxybenzyl)oxy)-4-pyrimidinyl)-1,3-benzothiazol-2-yl)acetamide], the pIC50 on PI3K α was 6.90.
As for `CC(=O)Nc1nc2ccc(-c3ccnc(N(C)S(=O)(=O)c4cccc5ccccc45)n3)cc2s1` [Example 207, N-(6-(2-(N-methylnaphthalene-1-sulfonamido)pyrimidin-4-yl)benzo[d]thiazol-2-yl)acetamide], the pIC50 on PI3K α is 6.90; on PI3K β, 6.66.
The matching figures for `CC(=O)Nc1nc2ccc(-c3nnc(NS(=O)(=O)c4ccc(F)cc4)o3)cc2s1` [Example 164, N-(6-(5-(4-Fluorophenylsulfonamido)-1,3,4-oxadiazol-2-yl)benzo[d]thiazol-2-yl)acetamide]: 7.75 and 6.49.
In the case of `CC(=O)Nc1nc2ccc(-c3ccnc(Cl)n3)cc2s1` [Example 105, N-(6-(2-chloro-4-pyrimidinyl)-1,3-benzothiazol-2-yl)acetamide], the negative-log IC50 (pIC50) on PI3K β is 5.08.
`COCCCOc1nccc(-c2ccc3nc(NC(C)=O)sc3c2)n1` [Example 5, N-(6-(2-(3-methoxypropoxy)-4-pyrimidinyl)-1,3-benzothiazol-2-yl)acetamide]: the pIC50 on PI3K β was < 4.40.
On the same count and under the same terms, for `CC(=O)Nc1nc2ccc(-c3ccnc(CCc4ccccc4)n3)cc2s1` [Example 15, N-(6-(2-(2-phenylethyl)-4-pyrimidinyl)-1,3-benzothiazol-2-yl)acetamide] the value was 5.19; for `COc1ccccc1Sc1nccc(-c2ccc3nc(NC(C)=O)sc3c2)n1` [Example 28, N-(6-(2-((2-methoxyphenyl)sulfanyl)-4-pyrimidinyl)-1,3-benzothiazol-2-yl)acetamide], 6.31; for `CC(=O)Nc1nc2ccc(-c3ccnc(Oc4ccccc4)n3)cc2s1` [Example 33, N-(6-(2-phenoxy-4-pyrimidinyl)-1,3-benzothiazol-2-yl)acetamide], 5.22.
